Test results as given in ChEMBL document CHEMBL1795203, “Synthesis and evaluation of highly potent GABA(A) receptor antagonists based on gabazine (SR-95531)” (Bioorg Med Chem Lett, 2011).

Target: T1, GABA-A receptor; alpha-1/beta-2/gamma-2 (Homo sapiens, UniProt P14867+P18507+P47870)
T1 sequence (P14867 whole entry): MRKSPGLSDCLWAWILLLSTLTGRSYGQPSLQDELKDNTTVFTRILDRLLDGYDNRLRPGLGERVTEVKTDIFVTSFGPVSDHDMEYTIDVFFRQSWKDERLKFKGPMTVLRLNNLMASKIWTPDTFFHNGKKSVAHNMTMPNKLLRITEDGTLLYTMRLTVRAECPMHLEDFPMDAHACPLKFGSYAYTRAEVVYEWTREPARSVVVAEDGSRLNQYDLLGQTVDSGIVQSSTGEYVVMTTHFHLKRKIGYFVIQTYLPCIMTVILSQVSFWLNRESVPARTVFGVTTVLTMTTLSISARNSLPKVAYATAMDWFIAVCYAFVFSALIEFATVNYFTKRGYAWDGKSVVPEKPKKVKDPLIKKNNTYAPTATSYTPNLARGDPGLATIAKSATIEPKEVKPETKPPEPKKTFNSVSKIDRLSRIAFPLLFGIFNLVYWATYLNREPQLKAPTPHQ
T1 sequence (P47870 whole entry): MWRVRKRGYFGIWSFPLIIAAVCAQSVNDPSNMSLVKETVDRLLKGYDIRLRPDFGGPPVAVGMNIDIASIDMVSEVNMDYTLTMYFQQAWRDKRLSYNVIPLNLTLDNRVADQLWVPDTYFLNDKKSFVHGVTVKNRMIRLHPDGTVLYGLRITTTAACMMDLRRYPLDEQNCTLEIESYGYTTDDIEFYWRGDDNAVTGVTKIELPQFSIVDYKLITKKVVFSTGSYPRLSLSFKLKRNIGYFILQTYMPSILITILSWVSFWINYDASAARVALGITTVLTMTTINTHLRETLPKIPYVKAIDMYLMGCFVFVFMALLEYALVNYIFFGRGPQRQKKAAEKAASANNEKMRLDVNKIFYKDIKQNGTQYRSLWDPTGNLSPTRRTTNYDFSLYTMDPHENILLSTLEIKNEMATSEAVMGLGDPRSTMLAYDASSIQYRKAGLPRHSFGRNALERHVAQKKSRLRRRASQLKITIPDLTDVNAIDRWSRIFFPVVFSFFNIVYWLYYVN
T1 sequence (P18507 whole entry): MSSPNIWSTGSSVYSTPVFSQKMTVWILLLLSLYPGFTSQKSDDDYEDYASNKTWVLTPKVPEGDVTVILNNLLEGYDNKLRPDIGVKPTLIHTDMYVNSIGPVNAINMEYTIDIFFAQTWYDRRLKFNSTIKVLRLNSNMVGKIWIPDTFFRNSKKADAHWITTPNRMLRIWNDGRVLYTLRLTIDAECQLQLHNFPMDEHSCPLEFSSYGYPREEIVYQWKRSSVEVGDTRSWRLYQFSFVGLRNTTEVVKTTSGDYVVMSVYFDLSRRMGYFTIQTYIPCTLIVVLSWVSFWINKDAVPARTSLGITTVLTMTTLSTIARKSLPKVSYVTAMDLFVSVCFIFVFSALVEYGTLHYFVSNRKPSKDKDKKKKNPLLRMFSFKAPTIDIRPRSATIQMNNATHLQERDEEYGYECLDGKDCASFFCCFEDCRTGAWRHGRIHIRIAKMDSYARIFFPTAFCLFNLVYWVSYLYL
Experiment: Antagonist activity at human recombinant GABA A receptor alpha1beta2gamma2S expressed in HEK293 cells assessed as inhibition of GABA-induced current by patch clamp electrophysiology
Type: functional, cell-based

Row | IC50 [nM] | Compound
1 | 11 | N=c1ccc(-c2ccc(OCc3ccccc3)cc2)nn1CCCC(=O)O
2 | 3 | N=c1ccc(-c2ccc(OCc3cccc([N+](=O)[O-])c3)cc2)nn1CCCC(=O)O
3 | 40 | C#CCOc1ccc(-c2ccc(=N)n(CCCC(=O)O)n2)cc1

Second part, the compound before the results:

Row | Compound | IC50 [nM]
4 | COc1cccc(COc2ccc(-c3ccc(=N)n(CCCC(=O)O)n3)cc2)c1 | 7
5 | COc1ccc(-c2ccc(=N)n(CCCC(=O)O)n2)cc1 [GABAZINE] | 349
